Measured values: article PMC11106707, “Design of potent tyrosinase inhibiting N-arylated-4-yl-benzamides bearing 2-aminothiazole-triazole bi-heterocycles: mechanistic insight through enzyme inhibition, kinetics and computational studies” (RSC Advances, 2024)

Target: T1, mushroom tyrosinase (Agaricus bisporus, UniProt C7FF04)
T1 construct: purchased Sigma Chemical, USA
Assay: Kinetic analysis of the inhibition of tyrosinase (Lineweaver–Burk / secondary plots)
Format: biochemical
Details: Lineweaver–Burk plots; Vmax decreased, Km remained the same
Method: To understand the inhibitory mechanism of synthetic compounds on the tyrosinase inhibition, kinetic study was performed. […] The kinetic results of the enzyme by the Lineweaver–Burk plot of 1/V versus 1/[S] in the presence of different inhibitor concentrations furnished a series of straight lines (Fig. 13A).
Fig. 13 Lineweaver–Burk plots for inhibition of tyrosinase in the presence of compound 9c. (A) Concentrations of 9c were 0.00, 0.004, 0.008, 0.016 and 0.032 μM, respectively. Substrate L-DOPA concentrations were 0.125, 0.25, 0.5, 1 and 2 mM, respectively. (B) The insets represent the plot of the slope versus inhibitor 9c concentrations to determine inhibition constant. The lines were drawn using linear least squares fit.
A series of experiments were performed to determine the inhibition kinetics of 9c by following the already reported methods.[41,42] The inhibitor concentrations for 9c were 0.00, 0.004, 0.008, 0.016 and 0.032 μM. Substrate L-DOPA concentrations were between 0.125 and 2 mM in all kinetic studies. Pre-incubation and measurement time was the same as discussed in the mushroom tyrosinase inhibition assay protocol. Maximal initial velocity was determined from the initial linear portion of absorbance up to five minutes after addition of enzyme at a 30 s interval. […]

T1 sequence (C7FF04 1-392): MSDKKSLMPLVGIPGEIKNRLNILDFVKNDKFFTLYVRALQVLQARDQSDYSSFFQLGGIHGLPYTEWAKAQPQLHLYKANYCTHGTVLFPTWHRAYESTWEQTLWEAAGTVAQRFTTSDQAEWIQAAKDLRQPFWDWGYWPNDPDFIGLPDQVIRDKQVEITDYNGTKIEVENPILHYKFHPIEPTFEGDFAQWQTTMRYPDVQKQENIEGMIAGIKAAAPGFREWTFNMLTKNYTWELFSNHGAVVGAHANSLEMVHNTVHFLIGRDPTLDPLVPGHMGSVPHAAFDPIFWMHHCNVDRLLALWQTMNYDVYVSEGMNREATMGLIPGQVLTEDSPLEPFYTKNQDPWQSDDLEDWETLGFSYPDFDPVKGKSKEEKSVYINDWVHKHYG

Row | SMILES | Inhibition type
1 | Cc1cccc(C)c1NC(=O)c1ccc(CSc2nnc(Cc3csc(N)n3)n2-c2ccccc2)cc1 [9c, 4-[({5-[(2-Amino-1,3-thiazol-4-yl)methyl]-4-phenyl-4H-1,2,4-triazol-3-yl}sulfanyl)methyl]-N-(2,6-dimethylphenyl)benzamide] | non-competitively

Same assay, conditions: calculated from Dixon plots; substrate L-DOPA 0.125–2 mM; read-out: Inhibition constant Ki

Row | SMILES | Ki [µM]
2 | Cc1cccc(C)c1NC(=O)c1ccc(CSc2nnc(Cc3csc(N)n3)n2-c2ccccc2)cc1 [9c, 4-[({5-[(2-Amino-1,3-thiazol-4-yl)methyl]-4-phenyl-4H-1,2,4-triazol-3-yl}sulfanyl)methyl]-N-(2,6-dimethylphenyl)benzamide] | 0.016

Target: tyrosinase
Assay: not given
Details: tyrosinase inhibitor reported previously, Fig. 1; cited from earlier work

Row | SMILES | IC50 [µM]
3 | COc1cc(Cl)ccc1-n1c(SCC(=O)Nc2ccc(Br)cc2)nnc1-c1ccccc1 | 0.0048 ± 0.0016
4 | Nn1c(SCc2cc(=O)c(O)co2)nnc1-c1ccccc1Cl | 5.35 ± 0.15
5 | Cc1ccccc1NC(=O)CSc1nnc(Cc2csc(N)n2)n1-c1ccccc1 | 0.0156 ± 0.0021
6 | Clc1ccc(-c2csc(N/N=C/c3ccc[nH]3)n2)cc1 | 7.48 ± 0.19
7 | O=C(/C=C/c1ccc(O)cc1)NC(=O)c1ccccc1 [N-acryloyl benzamide Derivatives] | 19.2 ± 1.14
8 | COc1cccc(C(=O)NN2C(=O)c3ccccc3NC2c2ccc(Br)cc2)c1 (centres unmarked) [Quinazolinone Benzamide Derivatives] | 1.61 ± 0.324

Tested on: RBCs (erythrocytes)
Assay: Hemolytic activity
Format: cell-based
Details: bovine, erythrocyte (RBC) suspension, pH 7.4, 20 μL compound solution (10 mg mL^−1) in 180 μL RBCs suspension, room temperature, read-out: Hemolysis (%) (mean ± SEM)
Method: Bovine blood sample was collected in EDTA that was diluted with saline (0.9% NaCl), and centrifuge at 1000 × g for 10 min. The erythrocytes separated diluted in phosphate buffer saline of pH 7.4 and a suspension was made. Add 20 μL of synthetic compounds solution (10 mg mL^−1) in 180 μL of RBCs suspension and incubate for 30 min at room temperature. PBS was used as negative control and Triton 100-X was taken as positive control.[43,44] The percentage of hemolysis was taken as by using formula: [drawing 24]

Row | SMILES | hemolysis at 30 min, 1 mg/mL [%]
9 | Cc1ccc(NC(=O)c2ccc(CSc3nnc(Cc4csc(N)n4)n3-c3ccccc3)cc2)c(C)c1 [9a, 4-[({5-[(2-Amino-1,3-thiazol-4-yl)methyl]-4-phenyl-4H-1,2,4-triazol-3-yl}sulfanyl)methyl]-N-(2,4-dimethylphenyl)benzamide] | 6.47 ± 0.02
10 | Cc1ccc(C)c(NC(=O)c2ccc(CSc3nnc(Cc4csc(N)n4)n3-c3ccccc3)cc2)c1 [9b, 4-[({5-[(2-Amino-1,3-thiazol-4-yl)methyl]-4-phenyl-4H-1,2,4-triazol-3-yl}sulfanyl)methyl]-N-(2,5-dimethylphenyl)benzamide] | 11.76 ± 0.03
11 | Cc1cccc(C)c1NC(=O)c1ccc(CSc2nnc(Cc3csc(N)n3)n2-c2ccccc2)cc1 [9c, 4-[({5-[(2-Amino-1,3-thiazol-4-yl)methyl]-4-phenyl-4H-1,2,4-triazol-3-yl}sulfanyl)methyl]-N-(2,6-dimethylphenyl)benzamide] | 9.41 ± 0.02
12 | Cc1ccc(NC(=O)c2ccc(CSc3nnc(Cc4csc(N)n4)n3-c3ccccc3)cc2)cc1C [9d, 4-[({5-[(2-Amino-1,3-thiazol-4-yl)methyl]-4-phenyl-4H-1,2,4-triazol-3-yl}sulfanyl)methyl]-N-(3,4-dimethylphenyl)benzamide] | 8.82 ± 0.04
13 | Cc1cc(C)cc(NC(=O)c2ccc(CSc3nnc(Cc4csc(N)n4)n3-c3ccccc3)cc2)c1 [9e, 4-[({5-[(2-Amino-1,3-thiazol-4-yl)methyl]-4-phenyl-4H-1,2,4-triazol-3-yl}sulfanyl)methyl]-N-(3,5-dimethylphenyl)benzamide] | 6.47 ± 0.02
14 | Cc1ccccc1NC(=O)c1ccc(CSc2nnc(Cc3csc(N)n3)n2-c2ccccc2)cc1 [9f, 4-[({5-[(2-Amino-1,3-thiazol-4-yl)methyl]-4-phenyl-4H-1,2,4-triazol-3-yl}sulfanyl)methyl]-N-(2-methylphenyl)benzamide] | 12.94 ± 0.03
15 | Cc1cccc(NC(=O)c2ccc(CSc3nnc(Cc4csc(N)n4)n3-c3ccccc3)cc2)c1 [9g, 4-[({5-[(2-Amino-1,3-thiazol-4-yl)methyl]-4-phenyl-4H-1,2,4-triazol-3-yl}sulfanyl)methyl]-N-(3-methylphenyl)benzamide] | 6.52 ± 0.02
16 | Cc1ccc(NC(=O)c2ccc(CSc3nnc(Cc4csc(N)n4)n3-c3ccccc3)cc2)cc1 [9h, 4-[({5-[(2-Amino-1,3-thiazol-4-yl)methyl]-4-phenyl-4H-1,2,4-triazol-3-yl}sulfanyl)methyl]-N-(4-dimethylphenyl)benzamide] | 2.64 ± 0.04
17 | CCc1ccccc1NC(=O)c1ccc(CSc2nnc(Cc3csc(N)n3)n2-c2ccccc2)cc1 [9i, 4-[({5-[(2-Amino-1,3-thiazol-4-yl)methyl]-4-phenyl-4H-1,2,4-triazol-3-yl}sulfanyl)methyl]-N-(2-ethylphenyl)benzamide] | 9.41 ± 0.05
18 | CCc1ccc(NC(=O)c2ccc(CSc3nnc(Cc4csc(N)n4)n3-c3ccccc3)cc2)cc1 [9j, 4-[({5-[(2-Amino-1,3-thiazol-4-yl)methyl]-4-phenyl-4H-1,2,4-triazol-3-yl}sulfanyl)methyl]-N-(4-ethylphenyl)benzamide] | 8.52 ± 0.05
19 | CCOc1cccc(NC(=O)c2ccc(CSc3nnc(Cc4csc(N)n4)n3-c3ccccc3)cc2)c1 [9k, 4-[({5-[(2-Amino-1,3-thiazol-4-yl)methyl]-4-phenyl-4H-1,2,4-triazol-3-yl}sulfanyl)methyl]-N-(3-ethoxyphenyl)benzamide] | 10.35 ± 0.03
20 | CC(C)(C)CC(C)(C)c1ccc(OCCO)cc1 [Triton X, reference compound] | 94.11 ± 0.01
